Measurements reported in PubChem BioAssay (NCI).
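Values below derive from 48-hour exposures of cells grown in 96-well plates, with endpoints linearly interpolated between the two concentrations bracketing the appropriate inhibition level. Definition used: TGI = concentration required for complete inhibition of growth.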

What was measured:
Test in all cases: NCI anticancer screen, dose series, 48 h
OVCAR-3 ovarian = test system: OVCAR-3 ovarian
T-47D breast = test system: T-47D breast
HOP-62 NSCLC = test system: HOP-62 NSCLC
M14 melanoma = test system: M14 melanoma
MDA-N = test system: MDA-N
UO-31 renal = test system: UO-31 renal
HCT-15 colon = test system: HCT-15 colon
SNB-75 CNS = test system: SNB-75 CNS
DU-145 prostate = test system: DU-145 prostate
HOP-92 NSCLC = test system: HOP-92 NSCLC
OVCAR-5 ovarian = test system: OVCAR-5 ovarian
A498 renal = test system: A498 renal
HCC-2998 colon = test system: HCC-2998 colon
MDA-MB-435 = test system: MDA-MB-435
OVCAR-4 ovarian = test system: OVCAR-4 ovarian
CCRF-CEM leukemia = test system: CCRF-CEM leukemia
HL-60(TB) leukemia = test system: HL-60(TB) leukemia
SN12C renal = test system: SN12C renal
COLO 205 colon = test system: COLO 205 colon
BT-549 breast = test system: BT-549 breast
IGROV1 ovarian = test system: IGROV1 ovarian
SW-620 colon = test system: SW-620 colon
ACHN renal = test system: ACHN renal
HT29 colon = test system: HT29 colon
EKVX NSCLC = test system: EKVX NSCLC
NCI-H23 lung = test system: NCI-H23 lung
SK-MEL-28 melanoma = test system: SK-MEL-28 melanoma
SF-268 CNS = test system: SF-268 CNS
UACC-62 melanoma = test system: UACC-62 melanoma
MDA-MB-231 breast = test system: MDA-MB-231 breast
U251 CNS = test system: U251 CNS
SNB-19 CNS = test system: SNB-19 CNS
NCI-H522 lung = test system: NCI-H522 lung
A549 NSCLC = test system: A549 NSCLC
K-562 leukemia = test system: K-562 leukemia
TK-10 renal = test system: TK-10 renal
PC-3 prostate = test system: PC-3 prostate
SF-295 CNS = test system: SF-295 CNS
786-0 renal = test system: 786-0 renal
SK-OV-3 ovarian = test system: SK-OV-3 ovarian
MOLT-4 leukemia = test system: MOLT-4 leukemia
CAKI-1 renal = test system: CAKI-1 renal
RXF 393 renal = test system: RXF 393 renal
HS 578T breast = test system: HS 578T breast
OVCAR-8 ovarian = test system: OVCAR-8 ovarian
UACC-257 melanoma = test system: UACC-257 melanoma
NCI-H460 lung = test system: NCI-H460 lung
MCF7 breast = test system: MCF7 breast
KM12 colon = test system: KM12 colon
MALME-3M melanoma = test system: MALME-3M melanoma
SF-539 CNS = test system: SF-539 CNS
NCI/ADR-RES ovarian = test system: NCI/ADR-RES ovarian
NCI-H226 lung = test system: NCI-H226 lung
SK-MEL-2 melanoma = test system: SK-MEL-2 melanoma
LOX IMVI melanoma = test system: LOX IMVI melanoma
SK-MEL-5 melanoma = test system: SK-MEL-5 melanoma
HCT-116 colon = test system: HCT-116 colon
RPMI-8226 leukemia = test system: RPMI-8226 leukemia
SR leukemia = test system: SR leukemia

Cc1cn(C2OC(CO)C(O)C2F)c(=O)[nH]c1=O (stereo not drawn)
TGI (OVCAR-3 ovarian): > 100 µM
TGI (T-47D breast): > 100 µM
TGI (HOP-62 NSCLC): > 100 µM
TGI (M14 melanoma): > 100 µM
TGI (MDA-N): > 100 µM
TGI (UO-31 renal): > 100 µM
TGI (HCT-15 colon): > 100 µM
TGI (SNB-75 CNS): > 100 µM
TGI (DU-145 prostate): > 100 µM
TGI (HOP-92 NSCLC): > 100 µM
TGI (OVCAR-5 ovarian): > 100 µM
TGI (A498 renal): > 100 µM
TGI (HCC-2998 colon): > 100 µM
TGI (MDA-MB-435): > 100 µM
TGI (OVCAR-4 ovarian): > 100 µM
TGI (CCRF-CEM leukemia): > 100 µM
TGI (HL-60(TB) leukemia): > 100 µM
TGI (SN12C renal): > 100 µM
TGI (COLO 205 colon): > 100 µM
TGI (BT-549 breast): > 100 µM
TGI (IGROV1 ovarian): > 100 µM
TGI (SW-620 colon): > 100 µM
TGI (ACHN renal): > 100 µM
TGI (HT29 colon): > 100 µM
TGI (EKVX NSCLC): > 100 µM
TGI (NCI-H23 lung): > 100 µM
TGI (SK-MEL-28 melanoma): > 100 µM
TGI (SF-268 CNS): > 100 µM
TGI (UACC-62 melanoma): > 100 µM
TGI (MDA-MB-231 breast): > 100 µM
TGI (U251 CNS): > 100 µM
TGI (SNB-19 CNS): > 100 µM
TGI (NCI-H522 lung): > 100 µM
TGI (A549 NSCLC): > 100 µM
TGI (K-562 leukemia): > 100 µM
TGI (TK-10 renal): > 100 µM
TGI (PC-3 prostate): > 100 µM
TGI (SF-295 CNS): > 100 µM
TGI (786-0 renal): > 100 µM
TGI (SK-OV-3 ovarian): > 100 µM
TGI (MOLT-4 leukemia): > 100 µM
TGI (CAKI-1 renal): > 100 µM
TGI (RXF 393 renal): > 100 µM
TGI (HS 578T breast): > 100 µM
TGI (OVCAR-8 ovarian): > 100 µM
TGI (UACC-257 melanoma): > 100 µM
TGI (NCI-H460 lung): > 100 µM
TGI (MCF7 breast): > 100 µM
TGI (KM12 colon): > 100 µM
TGI (MALME-3M melanoma): > 100 µM
TGI (SF-539 CNS): > 100 µM
TGI (NCI/ADR-RES ovarian): > 100 µM
TGI (NCI-H226 lung): > 100 µM
TGI (SK-MEL-2 melanoma): > 100 µM
TGI (LOX IMVI melanoma): > 100 µM
TGI (SK-MEL-5 melanoma): > 100 µM
TGI (HCT-116 colon): > 100 µM

CC(=O)NC1C(OCc2ccccc2)OC(CO)C(O)C1OCC(=O)N[C@@H](C)C(=O)N[C@H](CCC(=O)NCCNc1ccc([N+](=O)[O-])c2[nH]c3ccccc3c(=O)c12)C(N)=O (stereo partly drawn)
TGI (OVCAR-3 ovarian): > 100 µM
TGI (T-47D breast): > 100 µM
TGI (HOP-62 NSCLC): > 100 µM
TGI (M14 melanoma): > 100 µM
TGI (MDA-N): > 100 µM
TGI (UO-31 renal): 37.4 µM
TGI (HCT-15 colon): 44.9 µM
TGI (SNB-75 CNS): 61.5 µM
TGI (DU-145 prostate): > 100 µM
TGI (HOP-92 NSCLC): 80.8 µM
TGI (OVCAR-5 ovarian): > 100 µM
TGI (A498 renal): 58 µM
TGI (HCC-2998 colon): 36 µM
TGI (MDA-MB-435): > 100 µM
TGI (OVCAR-4 ovarian): 67.9 µM
TGI (CCRF-CEM leukemia): > 100 µM
TGI (HL-60(TB) leukemia): > 100 µM
TGI (SN12C renal): > 100 µM
TGI (COLO 205 colon): > 100 µM
TGI (BT-549 breast): 46 µM
TGI (SW-620 colon): > 100 µM
TGI (ACHN renal): 61.4 µM
TGI (HT29 colon): 85.8 µM
TGI (EKVX NSCLC): 60.5 µM
TGI (NCI-H23 lung): 90 µM
TGI (SK-MEL-28 melanoma): > 100 µM
TGI (UACC-62 melanoma): 46.6 µM
TGI (MDA-MB-231 breast): 94.4 µM
TGI (U251 CNS): > 100 µM
TGI (SNB-19 CNS): 93.2 µM
TGI (RPMI-8226 leukemia): > 100 µM
TGI (NCI-H522 lung): > 100 µM
TGI (K-562 leukemia): > 100 µM
TGI (TK-10 renal): 42.3 µM
TGI (SF-295 CNS): > 100 µM
TGI (786-0 renal): 83.2 µM
TGI (SK-OV-3 ovarian): > 100 µM
TGI (CAKI-1 renal): > 100 µM
TGI (HS 578T breast): > 100 µM
TGI (OVCAR-8 ovarian): 61.2 µM
TGI (SR leukemia): > 100 µM
TGI (UACC-257 melanoma): 54.3 µM
TGI (NCI-H460 lung): 30.7 µM
TGI (KM12 colon): > 100 µM
TGI (MALME-3M melanoma): > 100 µM
TGI (SF-539 CNS): > 100 µM
TGI (NCI/ADR-RES ovarian): 59.7 µM
TGI (NCI-H226 lung): 32.4 µM
TGI (LOX IMVI melanoma): 99.5 µM
TGI (SK-MEL-5 melanoma): > 100 µM
TGI (HCT-116 colon): > 100 µM
